According to patent US9642829B2, “Antifungal compound and uses thereof” (The University of Hong Kong, priority 2012, dated 2017):
Each block holds one compound with its values, some of them ahead of it.

Legend:
[1] = test system: C. albicans SC5314 and C. albicans ATCC 90028; test: Antifungal activity compared with caspofungin and amphotericin B (FIG. 2, CLSI M44-A disc diffusion); format: cell-based, Candida albicans
Description: (§1) Oral Biosciences laboratory has one of the largest collections of fungal isolates, particular that of Candida species in the world. In our previous studies, we have found multidrug resistant clinical isolates of Candida species against existing antifungals. In particular, some of these strains are resistant to best antifungal agents to date such as caspofungin, amphotericin B and fluconazole. Therefore, we performed antifungal susceptibility testing for SM21 against these drug resistant Candida isolates suing CLSI M27A brothmicrodultion assay and CLSI M44-A disc diffusion assay.

resistant isolate T-1549 = test: as above; format: cell-based, C. guilliermondii; conditions: resistant isolate T-1549 (FIG. 2C)
Description: as §1

C. albicans biofilms = test: Mono species Candida biofilm MIC, XTT assay; format: cell-based, Candida albicans; conditions: for Biofilm MIC90: 24 h C. albicans biofilms, 24 h drug exposure, XTT; for Minimum inhibitory concentration of 48 h Candida biofilms: 48 h C. albicans biofilms
Description: (§2) For instance, we have previously shown the resistance of Candida biofilms against amphotericin and caspofungin. Therefore, next using standard biofilm assays we have established in our laboratory, we examined the effect of SM21 against Candida biofilms. In brief, Candida cells were grown in SDA medium at 37° C. for 18 h. Then a loopful of the yeast was inoculated into the yeast nitrogen base (YNB; Difco) medium supplemented with 50 mM glucose in a rotary shaker at 75 rpm. After overnight broth culture, the yeasts were harvested in the late exponential growth phase and washed twice with 20 ml of phosphate buffer saline (PBS; pH 7.2. 0.1 M) prior to use in the biofilm studies. Candida biofilms were developed according to a previously published protocol. In brief, washed yeast cells were resuspended in YNB supplemented with 100 mM glucose and adjusted to an optical density of 0.38 at 520 nm (1×10^7 cells/ml). The standard cell suspension was used immediately to develop biofilms on commercially available presterilized, polystyrene, 96-well plate (IWAKI, Tokyo, Japan). At first, 100 μl of standardized cell suspension (1×10^7 cells/ml) was pipetted into each well of a microtiter plate and incubated for 1.5 h at 37° C. in a shaker at 75 rpm to permit yeast adherence to the well surface (adherence phase). For controls, a well of each microtiter plate was handled in an identical fashion except that no Candida suspension was added. Following the adhesion phase, the cell suspensions were aspirated, and each well washed with 100 μl of PBS to remove loosely adherent cells. 200 μl of YNB with 100 mM glucose were then pipetted into each of the washed wells and the plates incubated at 37° C. in a shaker at 75 rpm for 24 or 48 h. After biofilm growth phase microscopic examination of the cultures were performed to rule out contamination. Then, the suspending medium was aspirated and biofilms were washed with 100 μl PBS to remove the nonadherent cells. The stock solutions were diluted twofold with RPMI 1640 supplemented with 2% glucose to obtain SM21 concentration from 100 to 0.2 μg/ml drug concentrations. In parallel, other antifungal agents such as caspofungin (100 to 0.1 μg/ml) and amphotericin B (240 μg/ml to 0.225 μg/ml) was also prepared as describe above. A total of 100 μl of drug solution was added to the microtiter plate containing Candida biofilms. Biofilms were then incubated at 37° C. for 24 h with the antifungals and afterwards metabolic activity of fungal cells was determined by the XTT [2,3-bis(2-methoxy-4-nitro-5-sulfophenyl)-2H-tetrazolium-5-carboxanilide sodium salt] assay (17, 28). Candida biofilm MIC90 was defined as the lowest drug concentration with 90% reduction in opacity compared with the drug free control. Each experiment was repeated three times with four replicates.

C. glabrata biofilms = test: Mono species Candida biofilm MIC, XTT assay; format: cell-based; conditions: 48 h C. glabrata biofilms
Description: as §2

C. krusei biofilms = test: Mono species Candida biofilm MIC, XTT assay; format: cell-based; conditions: 48 h C. krusei biofilms
Description: as §2

C. albicans [2] = test: Antifungal susceptibility (MIC/MFC), CLSI criteria, 96-well double dilution; format: cell-based, Candida albicans; conditions: 0.5 McFarland inoculum (10^6 cells/ml)
Description: (§3) Antifungal activity of the small molecules was evaluated using USA standards, Clinical and Laboratory Standards Institute (CLSI) criteria. In brief, inocula from 24 h Candida cultures on Sabourauds's dextore agar were standardized to a turbidity equivalent of 0.5 McFarland standards at 520 nm with a spectrophotometer. The suspensions were further diluted in Rosewell Park Memorial Institute (RPMI) 1640 medium (Life technologies, New York, USA) to yield an inoculum concentration of approximately 0.5 1×10^3 to 2.5 1×10^3 cells/ml. Minimum inhibitory concentration (MIC) and minimum fungicidal concentration (MFC) assay was performed in 96-well plates (Iwaki, Tokyo, Japan) and each of the Candida species was exposed to a double dilution of SM21. Amphotericin B was used as a positive control. All the experiments were preformed three occasions with duplicates for all isolates. The plates were incubated at 35° C. for 48 h to evaluate MIC. In the case of Cryotococcus neoformans, reading were taken after 72 h. Aforementioned assay was performed for C. albicans ATCC 90028, C. albicans SC5314 and 10 C. albicans clinical isolates. Moreover, MIC/MFC determination was carried out for other fungal species such as C. glabrata, C. krusei, C. tropicalis, C. parapsilosis, C. neoformans, Aspergillus fumigates and Penicillium marneffei. […] Next using dose-dependent assay we tested that MIC/MFC of SM21 from 10^3 cells/ml to 10^7 cells/ml of C. albicans (Table 2). Each of the foregoing experiment was repeated on three different occasions.

C. glabrata = test: Antifungal susceptibility (MIC/MFC), CLSI criteria; format: cell-based, Candida glabrata; conditions: C. glabrata ATCC; 0.5 McFarland inoculum (10^6 cells/ml)
Description: (§4) Antifungal activity of the small molecules was evaluated using USA standards, Clinical and Laboratory Standards Institute (CLSI) criteria. In brief, inocula from 24 h Candida cultures on Sabourauds's dextore agar were standardized to a turbidity equivalent of 0.5 McFarland standards at 520 nm with a spectrophotometer. The suspensions were further diluted in Rosewell Park Memorial Institute (RPMI) 1640 medium (Life technologies, New York, USA) to yield an inoculum concentration of approximately 0.5 1×10^3 to 2.5 1×10^3 cells/ml. Minimum inhibitory concentration (MIC) and minimum fungicidal concentration (MFC) assay was performed in 96-well plates (Iwaki, Tokyo, Japan) and each of the Candida species was exposed to a double dilution of SM21. Amphotericin B was used as a positive control. All the experiments were preformed three occasions with duplicates for all isolates. The plates were incubated at 35° C. for 48 h to evaluate MIC. In the case of Cryotococcus neoformans, reading were taken after 72 h. Aforementioned assay was performed for C. albicans ATCC 90028, C. albicans SC5314 and 10 C. albicans clinical isolates. Moreover, MIC/MFC determination was carried out for other fungal species such as C. glabrata, C. krusei, C. tropicalis, C. parapsilosis, C. neoformans, Aspergillus fumigates and Penicillium marneffei. […]

C. krusei = test: Antifungal susceptibility (MIC/MFC), CLSI criteria; format: cell-based, Candida krusei; conditions: C. krusei ATCC; 0.5 McFarland inoculum (10^6 cells/ml)
Description: as §4

C. tropicalis = test: Antifungal susceptibility (MIC/MFC), CLSI criteria; format: cell-based, Candida tropicalis; conditions: C. tropicalis ATCC; 0.5 McFarland inoculum (10^6 cells/ml)
Description: as §4

C. parapsilosis = test: Antifungal susceptibility (MIC/MFC), CLSI criteria; format: cell-based, Candida parapsilosis; conditions: C. parapsilosis ATCC; 0.5 McFarland inoculum (10^6 cells/ml)
Description: as §4

C. neoformans = test: Antifungal susceptibility (MIC/MFC), CLSI criteria, reading after 72 h; format: cell-based, Cryptococcus neoformans; conditions: 0.5 McFarland inoculum (10^6 cells/ml)
Description: as §4

Aspergillus fumigatus = test: Antifungal susceptibility (MIC/MFC), CLSI criteria; format: cell-based; conditions: 0.5 McFarland inoculum (10^6 cells/ml)
Description: as §3

Penicillium marneffei = test: Antifungal susceptibility (MIC/MFC), CLSI criteria; format: cell-based; conditions: 0.5 McFarland inoculum (10^6 cells/ml)
Description: as §3

C. albicans [3] = test: Dose-dependent assay of MIC/MFC at different cell densities; format: cell-based, Candida albicans; parameters: unit not given here
Description: as §3

[4] = C. albicans ATCC 90028, CLSI quality control strain (FIG. 2B)

- Biofilm MIC90 (C. albicans biofilms): 50 µg/mL
SMILES: CC[C@H](C)C[C@H](C)CCCCCCCCC(=O)N[C@H]1C[C@@H](O)[C@@H](NCCN)NC(=O)[C@@H]2[C@@H](O)CCN2C(=O)[C@H]([C@H](O)CCN)NC(=O)[C@H]([C@H](O)[C@@H](O)c2ccc(O)cc2)NC(=O)[C@@H]2C[C@@H](O)CN2C(=O)[C@H]([C@@H](C)O)NC1=O [Caspofungin]
- Susceptibility of the strain to the agent [1, 4]: susceptible
- Susceptibility of the strain to the agent ([1]; C. albicans SC5314 (FIG. 2A)): susceptible
- Effectiveness against resistant isolate (resistant isolate T-1549): only SM21 was effective
- Minimum inhibitory concentration of 48 h Candida biofilms (C. albicans biofilms): 100 µg/mL
- Minimum inhibitory concentration of 48 h Candida biofilms (C. glabrata biofilms): 100 µg/mL
- Minimum inhibitory concentration of 48 h Candida biofilms (C. krusei biofilms): 100 µg/mL

SMILES: CC(=O)N1CCN(c2ccc(OCC3COC(Cn4ccnc4)(c4ccc(Cl)cc4Cl)O3)cc2)CC1 (stereo not shown) [Ketoconazole]
- Minimum inhibitory concentration of 48 h Candida biofilms (C. albicans biofilms): 64 µg/mL
- Minimum inhibitory concentration of 48 h Candida biofilms (C. glabrata biofilms): 64 µg/mL
- Minimum inhibitory concentration of 48 h Candida biofilms (C. krusei biofilms): 64 µg/mL

- Susceptibility (MIC90) (C. albicans [2]; C. albicans ATCC 90028): 0.2 µg/mL
- Susceptibility (MIC90) (C. albicans [2]; C. albicans CL1): 0.2 µg/mL
- Susceptibility (MIC90) (C. albicans [2]; C. albicans CL2): 0.4 µg/mL
- Susceptibility (MIC90) (C. albicans [2]; C. albicans CL3): 0.4 µg/mL
- Susceptibility (MIC90) (C. albicans [2]; C. albicans CL4): 0.2 µg/mL
- Susceptibility (MIC90) (C. albicans [2]; C. albicans CL5): 0.2 µg/mL
- Susceptibility (MIC90) (C. albicans [2]; C. albicans CL6): 0.2 µg/mL
- Susceptibility (MIC90) (C. albicans [2]; C. albicans CL7): 0.2 µg/mL
- Susceptibility (MIC90) (C. albicans [2]; C. albicans CL8): 0.4 µg/mL
- Susceptibility (MIC90) (C. albicans [2]; C. albicans CL9): 0.4 µg/mL
- Susceptibility (MIC90) (C. albicans [2]; C. albicans CL10): 0.2 µg/mL
- Susceptibility (MIC90) (C. albicans [2]; C. albicans SC5314): 0.2 µg/mL
- Susceptibility (MIC90) (C. glabrata): 0.4 µg/mL
- Susceptibility (MIC90) (C. krusei): 0.4 µg/mL
- Susceptibility (MIC90) (C. tropicalis): 0.8 µg/mL
- Susceptibility (MIC90) (C. parapsilosis): 0.8 µg/mL
- Susceptibility (MIC90) (C. neoformans): 0.4 µg/mL
- Susceptibility (MIC90) (Aspergillus fumigatus): 1.56 µg/mL
- Susceptibility (MIC90) (Penicillium marneffei): 0.05 µg/mL
- MIC/MFC (C. albicans [3]; C. albicans 10^4 cells/ml): 0.2
- MIC/MFC (C. albicans [3]; C. albicans 10^5 cells/ml): 0.2
- MIC/MFC (C. albicans [3]; C. albicans 10^6 cells/ml): 0.2
- MIC/MFC (C. albicans [3]; C. albicans 10^7 cells/ml): 0.8
- Biofilm MIC90 (C. albicans biofilms): 32 µg/mL
SMILES: C[C@@H]1[C@H](O)[C@@H](C)/C=C/C=C/C=C/C=C/C=C/C=C/C=C/[C@H](O[C@@H]2O[C@H](C)[C@@H](O)[C@H](N)[C@@H]2O)C[C@@H]2O[C@](O)(C[C@@H](O)C[C@@H](O)[C@H](O)CC[C@@H](O)C[C@@H](O)CC(=O)O[C@H]1C)C[C@H](O)[C@H]2C(=O)O [Amphotericin B, reference compound]
- Susceptibility of the strain to the agent [1, 4]: susceptible
- Susceptibility of the strain to the agent ([1]; C. albicans SC5314 (FIG. 2A)): susceptible
- Effectiveness against resistant isolate (resistant isolate T-1549): only SM21 was effective
- Minimum inhibitory concentration of 48 h Candida biofilms (C. albicans biofilms): 32 µg/mL
- Minimum inhibitory concentration of 48 h Candida biofilms (C. glabrata biofilms): 16 µg/mL
- Minimum inhibitory concentration of 48 h Candida biofilms (C. krusei biofilms): 32 µg/mL

SMILES: Nc1nc(=O)[nH]cc1F [5-fluorocytosine]
- Minimum inhibitory concentration of 48 h Candida biofilms (C. albicans biofilms): 420 µg/mL
- Minimum inhibitory concentration of 48 h Candida biofilms (C. glabrata biofilms): 420 µg/mL
- Minimum inhibitory concentration of 48 h Candida biofilms (C. krusei biofilms): 250 µg/mL
